# Test results as given in patent US20230134782A1, “TREATMENT OF SKIN CONDITIONS USING HIGH KRAFFT TEMPERATURE ANIONIC SURFACTANTS” (ARCUTIS BIOTHERAPEUTICS, INC., priority 2020, published 2023).
# Read-outs that look alike come from different tables or passages of the source.
# Legend:
# [1] = Krafft temperature determination in distilled water (water bath, dissolution and frothing on shaking); type: physicochemical; conditions: aqueous solution in distilled water: 0.012% ceteth-10 phosphate, 0.017% dicetyl phosphate, 0.014% sodium cetostearyl sulfate
# Experimental: 0.0012 grams of ceteth-10 phosphate (Moravek Lot 671-144-000-A-20190821-JHO) was weighed into a 20 mL glass scintillation vial. 10.0113 grams of distilled water was added to the scintillation vial and the vial was tightly capped and placed in a water bath. […] The surfactant remained as waxy particles sedimented on the bottom of the vial. After equilibration at 53.0° C. for 435 minutes, ceteth-10 phosphate had dissolved and the sample frothed when shaken. The Krafft temperature of a 0.012% ceteth-10 phosphate aqueous solution was determined to be 53.0° C.
# 0.0019 grams of dicetyl phosphate (Sigma dihexadecyl phosphate lot STBH2863) was weighed into a 20 mL glass scintillation vial. 11.2262 grams of distilled water was added to the scintillation vial and the vial was tightly capped and placed in a water bath. […] After equilibration at 58.0° C. for 450 minutes, dicetyl phosphate had dissolved and the sample frothed when shaken. The Krafft temperature of a 0.017% dicetyl phosphate aqueous solution was determined to be 58.0° C. 0.0024 grams of sodium cetostearyl sulfate (BASF Lanette E Granules Lot 0021826181) was weighed into a 20 mL glass scintillation vial. 17.0763 grams of distilled water was added to the scintillation vial and the vial was tightly capped and placed in a water bath. […] The Krafft temperature of a 0.014% sodium cetostearyl sulfate aqueous solution was determined to be 41.0° C.
# [2] = commonly used anionic surfactants; no source or concentration printed; cited from earlier work
Molecule,Krafft Temperature [1],Krafft Temperature ([1]; listed as ceteth-10 phosphate),Krafft Temperature [2]
ceteth-10 phosphate [Ceteth - 10 phosphate],53 °C,53 °C,–
CCCCCCCCCCOS(=O)(=O)[O-].[Na+] [Sodium decyl sulfate],–,–,8.0 °C
"CCCCCCCCCCCCCCS(=O)(=O)[O-].[Na+] [Sodium myristyl sulfonate, Sodium myristyl* sulfonate]",–,–,48.0 °C
CCCCCCCCCCCCCC(=O)[O-].[Na+] [Sodium myristate],–,–,39 °C
CCCCCCCCCCCCOS(=O)(=O)[O-].[Na+] [Sodium lauryl sulfate],–,–,16.0 °C
CCCCCCCCCCCC(=O)[O-].[Na+] [Sodium laurate],–,–,21.5 °C
CCCCCCCCCCCCCCCCOS(=O)(=O)[O-].[Na+] [Sodium cetyl sulfate],–,–,45.0 °C
CCCCCCCCCCCCOS(=O)(=O)O.N [Ammonium lauryl sulfate],–,–,10 °C
CCCCCCCCCCCCCCCCCCOS(=O)(=O)[O-].[Na+] [Sodium stearyl sulfate],–,–,56.0 °C
CCCCCCCCCCCCCCOS(=O)(=O)[O-].[Na+] [Sodium myristyl sulfate],–,–,30.0 °C
CCCCCCCCCCCCCCCC(=O)[O-].[Na+] [Sodium palmitate],–,–,69 °C
CCCCCCCCCCCCOP(=O)([O-])[O-].[Na+].[Na+] [Sodium lauryl phosphate],–,–,31.5 °C
CCCCCCCCCCCCCCCCCC(=O)[O-].[Na+] [Sodium stearate],–,–,71 °C
CCCCCCCCCCCCCCCCS(=O)(=O)[O-].[Na+] [Sodium hexadecyl sulfonate],–,–,57.0 °C
Sodium laureth sulfate,–,–,<0 °C
CCCCCCCCCCS(=O)(=O)[O-].[Na+] [Sodium decyl sulfonate],–,–,22.5 °C
